The values that follow come from ChEMBL document CHEMBL2417394, “Exquisite selectivity for human toll-like receptor 8 in substituted furo[2,3-c]quinolines” (J Med Chem, 2013).

Molecules are shown by their SMILES. Active and inactive are the calls of the source. The calls are words filed in the database; no cut-off is given here.

Assay [1] deals with T1, Toll-like receptor 9 (Homo sapiens) (UniProt Q9NR96).
T1 sequence (whole entry): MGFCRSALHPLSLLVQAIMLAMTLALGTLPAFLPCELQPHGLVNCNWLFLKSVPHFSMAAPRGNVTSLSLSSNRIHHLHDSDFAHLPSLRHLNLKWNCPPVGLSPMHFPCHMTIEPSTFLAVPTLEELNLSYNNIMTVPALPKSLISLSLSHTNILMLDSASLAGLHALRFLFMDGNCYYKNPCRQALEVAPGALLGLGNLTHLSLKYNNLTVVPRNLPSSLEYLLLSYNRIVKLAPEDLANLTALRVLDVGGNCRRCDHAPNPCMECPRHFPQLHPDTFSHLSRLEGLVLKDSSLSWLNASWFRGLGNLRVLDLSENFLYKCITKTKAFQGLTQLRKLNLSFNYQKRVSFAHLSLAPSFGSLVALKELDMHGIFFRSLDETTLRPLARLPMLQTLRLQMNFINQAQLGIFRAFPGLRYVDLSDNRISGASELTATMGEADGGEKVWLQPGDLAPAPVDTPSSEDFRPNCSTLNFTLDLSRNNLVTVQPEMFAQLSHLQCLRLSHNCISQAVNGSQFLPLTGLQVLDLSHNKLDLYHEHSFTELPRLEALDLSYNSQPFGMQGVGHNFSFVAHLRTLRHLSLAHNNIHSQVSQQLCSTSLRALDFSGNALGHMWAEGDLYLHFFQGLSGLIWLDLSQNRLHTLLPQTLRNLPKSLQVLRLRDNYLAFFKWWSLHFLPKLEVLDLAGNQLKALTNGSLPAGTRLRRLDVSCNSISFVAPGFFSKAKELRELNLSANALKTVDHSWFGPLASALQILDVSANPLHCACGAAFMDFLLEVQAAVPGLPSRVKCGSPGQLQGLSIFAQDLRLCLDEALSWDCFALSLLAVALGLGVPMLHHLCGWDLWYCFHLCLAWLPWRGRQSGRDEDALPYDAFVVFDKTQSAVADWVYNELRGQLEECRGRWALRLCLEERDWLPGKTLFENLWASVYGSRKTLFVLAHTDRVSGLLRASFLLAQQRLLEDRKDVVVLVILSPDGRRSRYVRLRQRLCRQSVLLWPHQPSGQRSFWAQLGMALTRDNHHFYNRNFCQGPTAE
Put plainly: Antagonist activity at human TLR9 expressed in HEK293 cells co-transfected with MD2 and sAP assessed as inhibition of NF-kappaB activity by reporter gene assay. The assay is classed as cell-based. (In general: A reporter such as luciferase makes a cellular process visible.)

Assay [2] addresses Toll-like receptor 5 (Homo sapiens) (UniProt O60602). Put plainly: Antagonist activity at human TLR5 expressed in HEK293 cells co-transfected with MD2 and sAP assessed as inhibition of NF-kappaB activity by reporter gene assay. The assay is classed as cell-based.
The target in assay [3] is T2, Toll-like receptor 7 (Homo sapiens) (UniProt Q9NYK1).
T2 sequence (whole entry): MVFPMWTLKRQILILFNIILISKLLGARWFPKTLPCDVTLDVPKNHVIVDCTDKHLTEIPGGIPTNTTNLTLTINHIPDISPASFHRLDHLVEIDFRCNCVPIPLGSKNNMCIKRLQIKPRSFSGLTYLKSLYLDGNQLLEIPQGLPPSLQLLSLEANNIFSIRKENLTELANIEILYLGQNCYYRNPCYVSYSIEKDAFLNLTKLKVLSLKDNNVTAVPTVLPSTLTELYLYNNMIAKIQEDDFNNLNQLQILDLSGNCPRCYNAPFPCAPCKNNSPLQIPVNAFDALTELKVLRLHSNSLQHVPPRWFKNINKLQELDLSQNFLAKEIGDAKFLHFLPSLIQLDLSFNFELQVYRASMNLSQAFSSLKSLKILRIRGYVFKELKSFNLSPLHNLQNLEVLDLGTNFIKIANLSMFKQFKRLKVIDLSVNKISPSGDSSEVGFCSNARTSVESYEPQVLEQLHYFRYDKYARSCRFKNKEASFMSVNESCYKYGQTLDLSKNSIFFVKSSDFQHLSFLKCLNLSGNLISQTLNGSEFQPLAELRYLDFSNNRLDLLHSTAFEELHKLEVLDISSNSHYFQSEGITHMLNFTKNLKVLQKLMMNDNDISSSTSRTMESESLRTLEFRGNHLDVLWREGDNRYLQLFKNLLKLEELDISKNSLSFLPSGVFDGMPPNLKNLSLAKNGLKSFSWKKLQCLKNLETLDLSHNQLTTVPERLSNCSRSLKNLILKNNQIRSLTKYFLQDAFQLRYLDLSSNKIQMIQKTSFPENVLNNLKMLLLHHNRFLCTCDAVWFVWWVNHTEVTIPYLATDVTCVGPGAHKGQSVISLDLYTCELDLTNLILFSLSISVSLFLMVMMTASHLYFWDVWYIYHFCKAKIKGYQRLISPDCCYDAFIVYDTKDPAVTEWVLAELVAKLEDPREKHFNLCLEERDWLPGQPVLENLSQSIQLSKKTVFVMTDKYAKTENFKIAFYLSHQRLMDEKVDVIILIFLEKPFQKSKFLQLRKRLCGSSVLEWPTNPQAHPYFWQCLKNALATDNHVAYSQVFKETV
Put plainly: Antagonist activity at human TLR7 expressed in HEK293 cells co-transfected with MD2 and sAP assessed as inhibition of NF-kappaB activity by reporter gene assay. Type of assay: cell-based.

In assay [4] the target is Toll-like receptor 2 (Homo sapiens) (UniProt O60603). Put plainly: Antagonist activity at human TLR2 expressed in HEK293 cells co-transfected with MD2 and sAP assessed as inhibition of NF-kappaB activity by reporter gene assay. Type of assay: cell-based.
Chain of Toll-like receptor 2 (Homo sapiens) (O60603 whole entry): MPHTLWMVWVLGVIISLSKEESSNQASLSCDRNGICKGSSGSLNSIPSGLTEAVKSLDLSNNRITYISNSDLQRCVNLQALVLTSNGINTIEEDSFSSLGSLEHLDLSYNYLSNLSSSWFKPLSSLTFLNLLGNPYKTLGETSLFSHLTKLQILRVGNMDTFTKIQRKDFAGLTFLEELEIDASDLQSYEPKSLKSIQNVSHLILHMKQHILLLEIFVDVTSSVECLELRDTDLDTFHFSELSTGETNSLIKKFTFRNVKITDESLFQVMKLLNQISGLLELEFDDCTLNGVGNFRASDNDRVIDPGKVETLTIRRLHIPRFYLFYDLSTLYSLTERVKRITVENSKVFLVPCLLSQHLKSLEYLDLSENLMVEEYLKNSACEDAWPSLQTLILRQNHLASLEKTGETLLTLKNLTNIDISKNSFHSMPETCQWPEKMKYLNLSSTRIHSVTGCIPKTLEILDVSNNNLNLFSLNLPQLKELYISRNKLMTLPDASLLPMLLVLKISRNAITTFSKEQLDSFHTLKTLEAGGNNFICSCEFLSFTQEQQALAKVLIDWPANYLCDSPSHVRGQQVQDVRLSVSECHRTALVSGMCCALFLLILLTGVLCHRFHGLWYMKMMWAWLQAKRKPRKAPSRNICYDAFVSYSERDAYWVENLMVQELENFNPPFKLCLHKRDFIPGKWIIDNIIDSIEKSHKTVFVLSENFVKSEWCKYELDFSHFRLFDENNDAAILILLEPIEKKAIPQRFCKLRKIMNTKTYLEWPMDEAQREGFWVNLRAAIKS
Assay [5] deals with Toll-like receptor 4 (Homo sapiens) (UniProt O00206). Put plainly: Antagonist activity at human TLR4 expressed in HEK293 cells co-transfected with MD2 and sAP assessed as inhibition of NF-kappaB activity by reporter gene assay. Type of assay: cell-based.
Chain of Toll-like receptor 4 (Homo sapiens) (O00206 whole entry, the tested form may be a part): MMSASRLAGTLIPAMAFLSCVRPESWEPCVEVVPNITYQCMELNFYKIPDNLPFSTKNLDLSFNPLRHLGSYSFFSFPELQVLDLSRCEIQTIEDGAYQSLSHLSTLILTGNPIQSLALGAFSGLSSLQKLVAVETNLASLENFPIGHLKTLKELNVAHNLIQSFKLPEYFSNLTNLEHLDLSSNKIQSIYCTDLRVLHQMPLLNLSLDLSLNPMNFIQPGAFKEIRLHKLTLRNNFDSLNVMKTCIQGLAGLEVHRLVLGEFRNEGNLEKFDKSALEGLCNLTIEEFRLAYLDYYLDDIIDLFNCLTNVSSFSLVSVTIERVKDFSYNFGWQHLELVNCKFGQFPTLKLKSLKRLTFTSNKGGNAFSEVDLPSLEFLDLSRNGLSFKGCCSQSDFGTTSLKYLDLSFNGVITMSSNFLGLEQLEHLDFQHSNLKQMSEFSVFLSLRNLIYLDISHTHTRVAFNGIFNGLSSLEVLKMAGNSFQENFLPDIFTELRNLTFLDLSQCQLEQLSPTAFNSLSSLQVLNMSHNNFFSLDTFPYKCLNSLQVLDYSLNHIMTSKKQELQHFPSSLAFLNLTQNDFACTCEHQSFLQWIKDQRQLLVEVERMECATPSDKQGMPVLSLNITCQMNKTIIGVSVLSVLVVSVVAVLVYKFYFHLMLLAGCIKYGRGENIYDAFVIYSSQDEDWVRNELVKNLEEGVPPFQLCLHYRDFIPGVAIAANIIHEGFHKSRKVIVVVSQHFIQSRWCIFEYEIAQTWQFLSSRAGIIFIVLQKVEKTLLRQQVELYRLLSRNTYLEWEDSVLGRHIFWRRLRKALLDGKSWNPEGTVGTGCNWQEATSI
In assay [6] the target is Nucleotide-binding oligomerization domain-containing protein 2 (Homo sapiens) (UniProt Q9HC29). Kind of assay: Antagonist activity at NOD2 (unknown origin).
Chain of Nucleotide-binding oligomerization domain-containing protein 2 (Homo sapiens) (Q9HC29 whole entry, the tested form may be a part): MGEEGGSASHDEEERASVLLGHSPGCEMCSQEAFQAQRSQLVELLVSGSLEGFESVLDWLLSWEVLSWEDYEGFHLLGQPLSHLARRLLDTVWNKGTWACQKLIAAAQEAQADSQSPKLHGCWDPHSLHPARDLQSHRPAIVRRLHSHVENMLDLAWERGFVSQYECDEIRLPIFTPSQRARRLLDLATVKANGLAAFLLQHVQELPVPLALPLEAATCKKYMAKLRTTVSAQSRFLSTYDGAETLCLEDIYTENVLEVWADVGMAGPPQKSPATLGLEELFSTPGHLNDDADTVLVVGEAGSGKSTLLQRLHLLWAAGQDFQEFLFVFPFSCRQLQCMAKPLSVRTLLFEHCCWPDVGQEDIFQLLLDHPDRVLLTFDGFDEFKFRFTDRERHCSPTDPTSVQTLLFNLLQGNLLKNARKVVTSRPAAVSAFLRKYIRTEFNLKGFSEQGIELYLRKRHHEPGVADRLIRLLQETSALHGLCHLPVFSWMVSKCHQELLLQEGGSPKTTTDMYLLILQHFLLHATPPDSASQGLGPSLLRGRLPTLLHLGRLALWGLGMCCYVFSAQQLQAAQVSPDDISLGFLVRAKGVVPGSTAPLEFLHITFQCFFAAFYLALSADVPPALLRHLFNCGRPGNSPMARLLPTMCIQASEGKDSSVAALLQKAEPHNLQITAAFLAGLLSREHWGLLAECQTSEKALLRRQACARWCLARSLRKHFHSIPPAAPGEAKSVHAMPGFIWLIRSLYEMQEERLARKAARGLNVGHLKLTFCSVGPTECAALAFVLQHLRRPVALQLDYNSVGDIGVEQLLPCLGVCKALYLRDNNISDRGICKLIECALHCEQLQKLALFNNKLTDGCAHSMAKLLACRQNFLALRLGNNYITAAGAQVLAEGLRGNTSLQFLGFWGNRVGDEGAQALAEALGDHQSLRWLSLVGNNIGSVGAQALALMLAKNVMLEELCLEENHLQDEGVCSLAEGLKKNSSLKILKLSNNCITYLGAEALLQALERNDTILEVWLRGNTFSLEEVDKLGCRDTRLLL
The target in assay [7] is T1, Toll-like receptor 9 (Homo sapiens). Kind of assay: Modulation of human TLR9 expressed in HEK293 cells co-transfected with MD2 and sAP assessed as induction of NF-kappaB activity by reporter gene assay. The assay is classed as cell-based.
For assay [8], the target named is Toll-like receptor 5 (Homo sapiens) (UniProt O60602). Kind of assay: Modulation of human TLR5 expressed in HEK293 cells co-transfected with MD2 and sAP assessed as induction of NF-kappaB activity by reporter gene assay. Type of assay: cell-based.
Chain of Toll-like receptor 5 (Homo sapiens) (O60602 whole entry): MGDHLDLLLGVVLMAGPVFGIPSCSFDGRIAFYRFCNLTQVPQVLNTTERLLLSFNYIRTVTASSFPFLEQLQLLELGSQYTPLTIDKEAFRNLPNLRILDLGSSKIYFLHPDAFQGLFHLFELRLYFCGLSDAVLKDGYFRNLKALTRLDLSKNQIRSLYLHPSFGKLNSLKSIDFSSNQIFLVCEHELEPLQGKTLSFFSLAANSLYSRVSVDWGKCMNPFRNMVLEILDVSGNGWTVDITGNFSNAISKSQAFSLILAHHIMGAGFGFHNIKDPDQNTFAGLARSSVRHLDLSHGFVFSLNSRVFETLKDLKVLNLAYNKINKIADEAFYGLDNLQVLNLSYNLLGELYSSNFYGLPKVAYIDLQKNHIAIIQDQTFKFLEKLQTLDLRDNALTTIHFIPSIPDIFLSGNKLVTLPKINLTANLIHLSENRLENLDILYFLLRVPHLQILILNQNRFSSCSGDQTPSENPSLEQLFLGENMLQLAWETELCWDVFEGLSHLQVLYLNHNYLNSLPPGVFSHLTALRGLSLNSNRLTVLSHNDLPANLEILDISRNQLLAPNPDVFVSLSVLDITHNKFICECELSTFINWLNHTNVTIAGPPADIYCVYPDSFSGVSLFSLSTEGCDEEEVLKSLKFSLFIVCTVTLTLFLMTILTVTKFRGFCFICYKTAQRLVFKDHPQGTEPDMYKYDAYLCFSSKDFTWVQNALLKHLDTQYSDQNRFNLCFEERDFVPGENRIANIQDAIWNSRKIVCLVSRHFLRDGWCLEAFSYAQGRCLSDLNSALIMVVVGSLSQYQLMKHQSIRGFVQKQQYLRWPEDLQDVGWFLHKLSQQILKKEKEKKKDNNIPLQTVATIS
Assay [9] deals with T2, Toll-like receptor 7 (Homo sapiens). Kind of assay: Modulation of human TLR7 expressed in HEK293 cells co-transfected with MD2 and sAP assessed as induction of NF-kappaB activity by reporter gene assay. The assay is classed as cell-based.
Assay [10] addresses Toll-like receptor 2 (Homo sapiens) (UniProt O60603). Put plainly: Modulation of human TLR2 expressed in HEK293 cells co-transfected with MD2 and sAP assessed as induction of NF-kappaB activity by reporter gene assay. The assay is classed as cell-based.

In the case of `CCCc1cc2c(N)nc3ccccc3c2o1`, the inhibition entry in [1], in [2], in [3], in [4], in assay [5] and in assay [6] was “inactive” in each case.
With `Nc1nc2ccccc2c2oc(-c3ccccc3)cc12`, the inhibition entry in assay [1], in assay [2], in assay [3], in [4], in [5] and in [6] was “inactive” each time.
In the case of `CCCCc1cc2c(N)nc3ccccc3c2o1`, the inhibition result in assay [1], in [2], in assay [3], in assay [4], in [5] and in [6] was “inactive” in each case.
In the case of `NCCc1cc2c(o1)c(N)nc1ccccc12`, the result in assay [7], in assay [8], in assay [9] and in assay [10] was Active.
With `CCCCc1cc2c(nc(N)c3ccccc32)o1`, the outcome in assay [7], in [8], in [9] and in [10] was inactive. The inhibition result in assay [1], in assay [2], in [3], in assay [4], in assay [5] and in assay [6] was “inactive” in each case.
